In US10040781B2, “Tank-binding kinase inhibitor compounds” (Gilead Sciences, Inc., priority 2014, dated 2018):
Like-named read-outs stand apart in the source and are kept apart here.

Columns and labels:
IKKε = IKKε (Homo sapiens (Human), UniProt Q14164); assay: IKKε TR-FRET enzymatic assay; assay type: biochemical; details: read-out: IKKe IC50
hJAK2 = hJAK2 (Homo sapiens (Human), UniProt O60674); assay: hJAK2 LANCE TR-FRET enzymatic assay; assay type: biochemical; details: read-out: JAK2 IC50
TBK1 = TBK1 (Homo sapiens (Human), UniProt Q9UHD2); assay: TBK1 TR-FRET enzymatic assay;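 further: phosphorylation of a biotinylated Ser/Thr peptide by purified full-length recombinant TBK1, read by TR-FRET after 240 min at 25 °C, IC50 is the geometric mean of at least four runs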
Chain of TBK1 (Q9UHD2 whole entry): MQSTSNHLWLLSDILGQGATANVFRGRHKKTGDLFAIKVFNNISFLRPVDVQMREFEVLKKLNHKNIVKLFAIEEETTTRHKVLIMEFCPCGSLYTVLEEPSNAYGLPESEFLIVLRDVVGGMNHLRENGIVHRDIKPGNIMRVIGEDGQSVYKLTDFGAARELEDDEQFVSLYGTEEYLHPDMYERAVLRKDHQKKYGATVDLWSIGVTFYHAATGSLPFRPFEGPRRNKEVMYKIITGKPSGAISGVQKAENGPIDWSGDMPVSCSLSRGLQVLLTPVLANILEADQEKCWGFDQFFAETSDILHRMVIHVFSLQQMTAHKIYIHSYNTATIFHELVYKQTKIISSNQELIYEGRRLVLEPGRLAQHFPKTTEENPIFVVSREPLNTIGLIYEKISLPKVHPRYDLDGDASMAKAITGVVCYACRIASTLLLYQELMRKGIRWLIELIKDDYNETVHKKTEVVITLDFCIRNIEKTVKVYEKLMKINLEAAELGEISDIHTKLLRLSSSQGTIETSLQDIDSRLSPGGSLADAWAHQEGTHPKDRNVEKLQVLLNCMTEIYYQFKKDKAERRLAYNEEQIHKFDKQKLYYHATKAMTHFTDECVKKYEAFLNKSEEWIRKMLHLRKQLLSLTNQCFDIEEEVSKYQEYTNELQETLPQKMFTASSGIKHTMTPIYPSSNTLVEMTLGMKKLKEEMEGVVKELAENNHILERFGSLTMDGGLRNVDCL

[1] = TR-FRET, 2×Km ATP, geometric mean of minimum four determinations

Chain of IKKε (Q14164 whole entry): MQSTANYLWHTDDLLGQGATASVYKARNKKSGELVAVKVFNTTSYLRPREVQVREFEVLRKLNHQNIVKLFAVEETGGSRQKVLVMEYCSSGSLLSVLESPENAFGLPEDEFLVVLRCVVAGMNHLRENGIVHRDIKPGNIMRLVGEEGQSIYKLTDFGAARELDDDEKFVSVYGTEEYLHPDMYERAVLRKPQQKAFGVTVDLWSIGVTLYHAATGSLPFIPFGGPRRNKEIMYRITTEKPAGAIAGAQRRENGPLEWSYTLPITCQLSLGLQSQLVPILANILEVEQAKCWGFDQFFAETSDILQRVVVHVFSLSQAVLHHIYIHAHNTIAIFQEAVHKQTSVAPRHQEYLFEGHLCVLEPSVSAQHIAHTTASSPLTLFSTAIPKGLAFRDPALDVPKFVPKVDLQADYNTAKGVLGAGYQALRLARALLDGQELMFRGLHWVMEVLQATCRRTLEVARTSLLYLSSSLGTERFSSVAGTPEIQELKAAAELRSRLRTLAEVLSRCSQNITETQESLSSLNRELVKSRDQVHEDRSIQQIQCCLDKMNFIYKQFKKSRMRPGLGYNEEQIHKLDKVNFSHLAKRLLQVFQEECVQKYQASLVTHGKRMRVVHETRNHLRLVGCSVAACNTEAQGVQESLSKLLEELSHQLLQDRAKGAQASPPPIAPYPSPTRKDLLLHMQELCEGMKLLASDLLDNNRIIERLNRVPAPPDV
Chain of hJAK2 (O60674 whole entry): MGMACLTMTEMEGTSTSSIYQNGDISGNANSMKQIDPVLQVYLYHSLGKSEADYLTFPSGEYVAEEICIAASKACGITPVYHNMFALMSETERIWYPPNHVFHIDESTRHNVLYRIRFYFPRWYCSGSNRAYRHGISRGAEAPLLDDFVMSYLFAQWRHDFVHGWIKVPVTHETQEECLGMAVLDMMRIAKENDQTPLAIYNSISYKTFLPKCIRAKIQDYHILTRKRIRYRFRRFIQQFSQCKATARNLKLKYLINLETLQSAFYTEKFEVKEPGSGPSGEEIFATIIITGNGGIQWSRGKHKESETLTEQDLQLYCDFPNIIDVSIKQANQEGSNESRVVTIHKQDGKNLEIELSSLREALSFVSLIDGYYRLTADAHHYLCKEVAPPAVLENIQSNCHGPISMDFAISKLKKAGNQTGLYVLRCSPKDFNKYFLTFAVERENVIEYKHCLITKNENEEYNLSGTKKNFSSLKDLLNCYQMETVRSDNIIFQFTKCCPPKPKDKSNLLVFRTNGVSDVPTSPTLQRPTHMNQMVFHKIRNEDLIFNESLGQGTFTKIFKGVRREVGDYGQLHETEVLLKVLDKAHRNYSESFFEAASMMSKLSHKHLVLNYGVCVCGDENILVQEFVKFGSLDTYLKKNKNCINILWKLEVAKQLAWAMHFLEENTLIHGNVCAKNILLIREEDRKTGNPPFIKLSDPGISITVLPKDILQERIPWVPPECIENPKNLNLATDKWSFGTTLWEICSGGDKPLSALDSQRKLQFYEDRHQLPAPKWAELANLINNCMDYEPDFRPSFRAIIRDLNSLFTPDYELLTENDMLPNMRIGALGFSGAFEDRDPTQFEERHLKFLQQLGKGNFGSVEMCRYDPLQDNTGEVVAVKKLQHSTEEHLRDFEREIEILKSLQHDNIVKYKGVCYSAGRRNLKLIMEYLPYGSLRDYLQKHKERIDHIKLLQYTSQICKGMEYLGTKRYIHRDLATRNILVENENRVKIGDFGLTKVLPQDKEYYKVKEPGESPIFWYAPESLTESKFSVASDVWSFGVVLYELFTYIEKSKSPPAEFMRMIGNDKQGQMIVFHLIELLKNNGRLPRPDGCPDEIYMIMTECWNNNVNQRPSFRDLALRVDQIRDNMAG

IC50 (IKKε) | IC50 (hJAK2) | IC50 (TBK1) | IC50 (IKKε; [1]) | Structure (SMILES)
18 nM | 131 nM | 9 nM |  | N#Cc1cc(-c2ncnc(Nc3ccc(N4CCN(C5COC5)CC4)cc3)n2)ccc1O[C@H]1CCN(C(=O)c2ccnnc2)C[C@H]1F [Example 338, 2-(((3R,4S)-3-fluoro-1-(pyridazine-4-carbonyl)piperidin-4-yl)oxy)-5-(4-((4-(4-(oxetan-3-yl)piperazin-1-yl)phenyl)amino)-1,3,5-triazin-2-yl)benzonitrile]
 | 125 nM | 3 nM | 3 nM | CC1(C)CN(C(=O)c2ccn[nH]2)C[C@@H](F)[C@H]1Oc1ccc(-c2ncnc(Nc3ccc(N4CCN(C5COC5)CC4)cc3)n2)cc1C#N [Example 442, 2-(((4S,5R)-5-fluoro-3,3-dimethyl-1-(1H-pyrazole-5-carbonyl)piperidin-4-yl)oxy)-5-(4-((4-(4-(oxetan-3-yl)piperazin-1-yl)phenyl)amino)-1,3,5-triazin-2-yl)benzonitrile]
 | 88 nM | 4 nM | 7 nM | Cc1cc(Nc2ncnc(-c3ccc(O[C@H]4CCN(C(=O)CCO)C[C@H]4F)c(C#N)c3)n2)ccc1N1CCN(C2COC2)CC1 [Example 533, 2-(((3R,4S)-3-fluoro-1-(3-hydroxypropanoyl)piperidin-4-yl)oxy)-5-(4-((3-methyl-4-(4-(oxetan-3-yl)piperazin-1-yl)phenyl)amino)-1,3,5-triazin-2-yl)benzonitrile]
4 nM | 397 nM | 2 nM |  | N#Cc1cc(-c2ncnc(Nc3ccc(N4CCN(C5COC5)CC4)cc3)n2)ccc1O[C@H]1CCOC[C@H]1F [Example 297, 2-(((3R,4S)-3-fluorotetrahydro-2H-pyran-4-yl)oxy)-5-(4-((4-(4-(oxetan-3-yl)piperazin-1-yl)phenyl)amino)-1,3,5-triazin-2-yl)benzonitrile]
3 nM | 75 nM | 3 nM |  | N#Cc1cc(-c2ncnc(Nc3ccc(N4CCN(C5COC5)CC4)cc3)n2)ccc1O[C@H]1CCN(C(=O)c2[nH]nc(N)c2Cl)C[C@H]1F [Example 323, 2-(((3R,4S)-1-(3-amino-4-chloro-1H-pyrazole-5-carbonyl)-3-fluoropiperidin-4-yl)oxy)-5-(4-((4-(4-(oxetan-3-yl)piperazin-1-yl)phenyl)amino)-1,3,5-triazin-2-yl)benzonitrile]
1 nM | 49 nM | 2 nM |  | CC1(C)CN(C(=O)CO)C[C@H](F)[C@@H]1Oc1ccc(-c2ncnc(Nc3ccc(N4CCN(C5COC5)CC4)cc3)n2)cc1C#N (single isomer, unassigned) [Example 178]
10 nM | 90 nM | 2 nM |  | N#Cc1cc(-c2ncnc(Nc3ccc(N4CCN(C5COC5)CC4)cc3)n2)ccc1O[C@H]1CN(C(=O)CO)CC1(F)F (single isomer, unassigned) [Example 195]
 | 849 nM | 65 nM | 156 nM | CN1CC(Oc2ccc(-c3ncnc(Nc4ccc(N5CCN(C6COC6)CC5)cc4)n3)cc2C#N)CCC1=O (stereo not drawn) [Example 422, 2-((1-methyl-6-oxopiperidin-3-yl)oxy)-5-(4-((4-(4-(oxetan-3-yl)piperazin-1-yl)phenyl)amino)-1,3,5-triazin-2-yl)benzonitrile]
233 nM | 723 nM | 58 nM |  | N#Cc1cc(-c2ncnc(Nc3ccc(N4CCN(C5COC5)CC4)cc3)n2)ccc1O[C@@H]1CCNC[C@H]1F [Example 236, 2-(((3R,4R)-3-fluoropiperidin-4-yl)oxy)-5-(4-((4-(4-(oxetan-3-yl)piperazin-1-yl)phenyl)amino)-1,3,5-triazin-2-yl)benzonitrile]
 | 532 nM | 12 nM | 41 nM | N#Cc1cc(-c2ncnc(Nc3ccc(N4CCN(C5COC5)CC4)cc3)n2)ccc1O[C@H]1CCN(C(=O)[C@H]2CCCO2)C[C@H]1F [Example 505, 2-(((3R,4S)-3-fluoro-1-((R)-tetrahydrofuran-2-carbonyl)piperidin-4-yl)oxy)-5-(4-((4-(4-(oxetan-3-yl)piperazin-1-yl)phenyl)amino)-1,3,5-triazin-2-yl)benzonitrile]
603 nM | 474 nM | 266 nM |  | N#Cc1cc(-c2ncnc(Nc3ccc(N4CCN(C5COC5)CC4)cc3)n2)ccc1O[C@H]1CCCC[C@H]1N [Example 291, 2-(((1S,2R)-2-aminocyclohexyl)oxy)-5-(4-((4-(4-(oxetan-3-yl)piperazin-1-yl)phenyl)amino)-1,3,5-triazin-2-yl)benzonitrile]
1 nM | 155 nM | 3 nM |  | N#Cc1cc(-c2ncnc(Nc3ccc(N4CCN(C5COC5)CC4)cc3)n2)ccc1O[C@H]1CCN(C(=O)c2ccn[nH]2)CC1(F)F [Example 164, (S)-2-((3,3-difluoro-1-(1H-pyrazole-5-carbonyl)piperidin-4-yl)oxy)-5-(4-((4-(4-(oxetan-3-yl)piperazin-1-yl)phenyl)amino)-1,3,5-triazin-2-yl)benzonitrile]
2 nM | 146 nM | 2 nM |  | N#CCC(=O)N1CC[C@H](Oc2ccc(-c3ncnc(Nc4ccc(N5CCN(C6COC6)CC5)cc4)n3)cc2C#N)[C@H](F)C1 [Example 138, 2-(((3R,4S)-1-(2-cyanoacetyl)-3-fluoropiperidin-4-yl)oxy)-5-(4-((4-(4-(oxetan-3-yl)piperazin-1-yl)phenyl)amino)-1,3,5-triazin-2-yl)benzonitrile]
5 nM | 305 nM | 4 nM |  | N#Cc1cc(-c2ncnc(Nc3ccc(N4CCN(C5COC5)CC4)c(F)c3)n2)ccc1O[C@H]1CCN(C(=O)[C@@H]2CCC(=O)N2)C[C@H]1F [Example 372, 2-(((3R,4S)-3-fluoro-1-((S)-5-oxopyrrolidine-2-carbonyl)piperidin-4-yl)oxy)-5-(4-((3-fluoro-4-(4-(oxetan-3-yl)piperazin-1-yl)phenyl)amino)-1,3,5-triazin-2-yl)benzonitrile]

Continued, molecule first:

Structure (SMILES) | IC50 (IKKε) | IC50 (hJAK2) | IC50 (TBK1) | IC50 (IKKε; [1])
COc1ccc(Nc2ncnc(-c3ccc(OC4CCOCC4)c(C#N)c3)n2)cc1 [Example 72, 5-(4-((4-methoxyphenyl)amino)-1,3,5-triazin-2-yl)-2-((tetrahydro-2H-pyran-4-yl)oxy)benzonitrile] | 21 nM | > 1000 nM | 5 nM | 
N#Cc1cc(-c2ncnc(Nc3ccc(N4CCN(C5COC5)CC4)c(C#N)c3)n2)ccc1OC1CCOCC1 [Example 38, 5-((4-(3-cyano-4-((tetrahydro-2H-pyran-4-yl)oxy)phenyl)-1,3,5-triazin-2-yl)amino)-2-(4-(oxetan-3-yl)piperazin-1-yl)benzonitrile] | 6 nM | > 1000 nM | 3 nM | 
C[C@H](O)C(=O)N1CC[C@H](Oc2ccc(-c3ncnc(Nc4ccc(N5CCC[C@@H](O)C5)cc4)n3)cc2C#N)[C@H](F)C1 [Example 357, 2-(((3R,4S)-3-fluoro-1-((S)-2-hydroxypropanoyl)piperidin-4-yl)oxy)-5-(4-((4-((R)-3-hydroxypiperidin-1-yl)phenyl)amino)-1,3,5-triazin-2-yl)benzonitrile] | 2 nM | 511 nM | 4 nM | 
N#Cc1cc(-c2ncnc(Nc3ccc(N4CCN(C5COC5)CC4)cc3)n2)ccc1OCC1(C#N)COC1 [Example 491, 3-((2-cyano-4-(4-((4-(4-(oxetan-3-yl)piperazin-1-yl)phenyl)amino)-1,3,5-triazin-2-yl)phenoxy)methyl)oxetane-3-carbonitrile] |  | 216 nM | 25 nM | 33 nM
Cc1c(Nc2ncnc(-c3ccc(O[C@H]4CCN(C(=O)[C@H](C)O)C[C@H]4F)c(C#N)c3)n2)cnn1C [Example 566, 5-(4-((1,5-dimethyl-1H-pyrazol-4-yl)amino)-1,3,5-triazin-2-yl)-2-(((3R,4S)-3-fluoro-1-((S)-2-hydroxypropanoyl)piperidin-4-yl)oxy)benzonitrile] |  | ≥ 1000 nM | 14 nM | 33 nM
C[C@H](O)C(=O)N1CC[C@H](Oc2ccc(-c3ncnc(Nc4ccc(N5CCO[C@H](CO)C5)cc4)n3)cc2C#N)[C@H](F)C1 [Example 233, 2-(((3R,4S)-3-fluoro-1-((S)-2-hydroxypropanoyl)piperidin-4-yl)oxy)-5-(4-((4-((S)-2-(hydroxymethyl)morpholino)phenyl)amino)-1,3,5-triazin-2-yl)benzonitrile] | 1 nM | 333 nM | 2 nM | 
COc1cc(Nc2ncnc(-c3ccc(O[C@H]4CCN(C(=O)[C@H](C)O)C[C@H]4F)c(C#N)c3)n2)ccn1 [Example 474] |  | ≥ 1000 nM | 6 nM | 10 nM
N#Cc1cc(-c2ncnc(Nc3ccc(N4CCN(C5COC5)CC4)cc3)n2)ccc1N1CCC2(CCOC2)CC1 [Example 213, 5-(4-((4-(4-(oxetan-3-yl)piperazin-1-yl)phenyl)amino)-1,3,5-triazin-2-yl)-2-(2-oxa-8-azaspiro[4.5]decan-8-yl)benzonitrile] | 14 nM | ≥ 1000 nM | 3 nM | 
N#Cc1cc(-c2ncnc(Nc3ccc(N4CCOCC4)cc3)n2)ccc1O[C@@H]1CCNC1 [Example 80] | 37 nM | 389 nM | 19 nM | 
N#Cc1cc(-c2ncnc(Nc3ccc(N4CCN(C5COC5)CC4)cc3)n2)ccc1O[C@H]1CCN(C(=O)[C@@H](O)CO)CC1(F)F [Example 581, 2-(((S)-1-((S)-2,3-dihydroxypropanoyl)-3,3-difluoropiperidin-4-yl)oxy)-5-(4-((4-(4-(oxetan-3-yl)piperazin-1-yl)phenyl)amino)-1,3,5-triazin-2-yl)benzonitrile] |  | 86 nM | 2 nM | 1 nM
N#Cc1cc(-c2ncnc(Nc3ccc(OCCN4CCCC4)cc3)n2)ccc1OC1CCOCC1 [Example 332, 5-(4-((4-(2-(pyrrolidin-1-yl)ethoxy)phenyl)amino)-1,3,5-triazin-2-yl)-2-((tetrahydro-2H-pyran-4-yl)oxy)benzonitrile] | 5 nM | 943 nM | 10 nM | 
